Assay results: patent US20250345295A1, “LMK235 COMPOSITIONS AND METHODS” (UNM Rainforest Innovations, priority 2024, published 2025)
Where “and” joins values, the source holds several entries; their conditions need not be identical. Equal entries are not always repeated.

Tested on: differentially expressed genes in TG
Assay: RNAseq gene expression profiling of TG
Assay type: in vivo, mouse
Details: for Log2FC Ascl1 / Log2FC Klf2 / Log2FC Klf4 / Log2FC Klf5 / Log2FC Klf6 / Log2FC Klf7 / Log2FC Klf9 / Log2FC Klf13 / Log2FC Klf15 / Log2FC Klf16 / Log2FC L-Myc (Mycl) / Log2FC Lin28b / Log2FC Myt1l / Log2FC N-Myc (Mycn) / Log2FC Nanog / Log2FC NeuroD1 / Log2FC Sirt1 / Log2FC Sox2 / Log2FC Sox11 / Log2FC Stat3 / Log2FC c-Myc (Myc): TG
Protocol: Gene expression profiling was performed on TG from mice with/without nerve injury during the acute phase (three weeks post injury) in TIC mice and after transition to chronic pain (10 weeks post injury) in FRICT-ION mice by Quick Biology Inc. (Monrovia, CA).
Total RNA from ipsilateral TG was isolated using the Rneasy Mini Kit (Qiagen, Valencia, CA). Gene expression profiling and analysis with RNA was done by Quick Biology Inc. (Monrovia, CA). RNAseq library preparation was performed by Quick Biology Inc. (Monrovia, CA), sequencing was performed using an Illumina HiSeq 4000 at 40 million reads per sample. The reads were first mapped to the latest UCSC transcript set using Bowtie2 version 2.1.0 and the gene expression level was estimated using RSEM v1.2.15. Differentially expressed genes were identified using the edgeR program. Genes showing altered expression with p<0.05 were considered differentially expressed.

[1] = TG RNAseq, LMK235-treated vs untreated FRICT-ION mice
[2] = TG RNAseq, male FRICT-ION mice treated with LMK235 vs Vehicle, week 10
[3] = TG RNAseq, male FRICT-ION mice treated with LMK235 vs naive, week 10
[4] = LMK235 Treated FRICT-ION versus Naive
[5] = LMK235 Treated FRICT-ION versus Untreated FRICT-ION

SMILES: Cc1cc(C)cc(C(=O)NOCCCCCC(=O)NO)c1 [LMK235, N-[[6-(Hydroxyamino)-6-oxohexyl]oxy]-3,5-dimethyl-benzamide]
- Nav3 downregulated, fold [1]: 1.19 fold
- Net1 upregulated, fold [1]: 1.12 fold
- Neurod4 upregulated, fold [1]: 1.57 fold
- Nf2 upregulated, fold [1]: 1.04 fold
- Ngef downregulated, fold [1]: 1.34 fold
- Nkain2 downregulated, fold [1]: 1.14 fold
- Nova1 upregulated, fold [1]: 1.04 fold
- Nras downregulated, fold [1]: 1.03 fold
- Nrg2 upregulated, fold [1]: 1.10 fold
- Nrg3 downregulated, fold [1]: 1.00 fold
- Ntrk1 upregulated, fold [1]: 1.80 fold
- Nts downregulated, fold [1]: 1.74 fold
- Scn2a Scn2a1 downregulated, fold [1]: 1.04 fold
- Scn3a downregulated, fold [1]: 1.01 fold
- Scn7a downregulated, fold [1]: 1.07 fold
- Scn8a upregulated, fold [1]: 1.05 fold
- Scn9a upregulated, fold [1]: 1.29 fold
- Trpc6 upregulated, fold [1]: 1.08 fold
- Trpm3 upregulated, fold [1]: 1.19 fold
- Trpm4 upregulated, fold [1]: 1.05 fold
- Trpv6 downregulated, fold [1]: 1.19 fold
- Fold change 1700047I17Rik2 [2]: 3.82 fold
- Fold change 8430408G22Rik [2]: 2.46 fold
- Fold change Acta2 [2]: 2.01 fold
- Fold change Amy2a5 [2]: 2.03 fold
- Fold change Armc3 [2]: 2.04 fold
- Fold change Asb4 [2]: 1.53 fold
- Fold change C1ql2 [2]: 2.34 fold
- Fold change C1ql4 [2]: 4.76 fold
- Fold change Calcb [2]: 2.17 fold
- Fold change Ccdc153 [2]: 2.32 fold
- Fold change Cckbr [2]: −2.32 fold
- Fold change Crhbp [2]: 2.79 fold
- Fold change Cutal [2]: 2.10 fold
- Fold change Cyp26b1 [2]: 2.99 fold
- Fold change Cytl1 [2]: 2.14 fold
- Fold change Dmrt3 [2]: 2.46 fold
- Fold change Eif3j2 [2]: 3.88 fold
- Fold change Evi2a-evi2b [2]: 136.10 fold
- Fold change Fev [2]: 2.35 fold
- Fold change Gata3 [2]: 3.74 fold
- Fold change Gh [2]: −25.22 fold
- Fold change Gm833 [2]: 2.45 fold
- Fold change Gm8221 [2]: 241.23 fold
- Fold change Gm13306 [2]: 48.23 fold
- Fold change Gpx2 [2]: 3.17 fold
- Fold change Gucy2f [2]: 2.13 fold
- Fold change H19 [2]: 2.05 fold
- Fold change Hdac5 [2]: −2.03 fold
- Fold change Hist2h3c2 [2]: 128.58 fold
- Fold change Hoxb9 [2]: −16.50 fold and −16.5 fold
- Fold change Hoxc8 [2]: −8.22 fold
- Fold change Hoxd8 [2]: −4.14 fold
- Fold change Irx4 [2]: 2.51 fold
- Fold change Isl1 [2]: 2.30 fold
- Fold change Kcnmb1 [2]: 2.15 fold
- Fold change Mgl2 [2]: 2.39 fold
- Fold change Myom1 [2]: 2.01 fold
- Fold change Nkx6-3 [2]: 2.10 fold
- Fold change Onecut3 [2]: 2.22 fold
- Fold change P2rx2 [2]: −1.84 fold
- Fold change P2rx4 [2]: −2.08 fold
- Fold change Pappa2 [2]: 2.16 fold
- Fold change Pde4c [2]: 2.45 fold
- Fold change Ppp1r1c [2]: 2.51 fold
- Fold change Sec16b [2]: 1.98 fold
- Fold change Serpina3h [2]: 2.51 fold
- Fold change Shox2 [2]: 2.49 fold
- Fold change Slc6a4 [2]: 4.38 fold
- Fold change Slc18a2 [2]: 2.01 fold
- Fold change Slfn4 [2]: −2.32 fold
- Fold change Sp8 [2]: 2.42 fold
- Fold change Tmprss11d [2]: 2.98 fold
- Fold change Tph2 [2]: 4.18 fold
- Fold change Tyrp1 [2]: 3.03 fold
- Fold change Vmn2r84 [2]: 2.71 fold
- Fold change lc6a2 [2]: 2.91 fold
- Gh downregulated, fold [2]: 25.22 fold
- Hoxb9 downregulated, fold [2]: 16.50 fold
- Hoxc8 downregulated, fold [2]: 8.22 fold
- Hoxd8 downregulated, fold [2]: 4.14 fold
- P2rx4 downregulated, fold [2]: 2.08 fold
- Slfn4 downregulated, fold [2]: 2.32 fold
- Fold change 1500015O10Rik [3]: 4.68 fold
- Fold change 4833423E24Rik [3]: 2.10 fold
- Fold change Ache [3]: −1.12 fold
- Fold change Ackr4 [3]: 3.74 fold
- Fold change Aqp1 [3]: 7.41 fold and 7.4 fold
- Fold change Calml4 [3]: 2.88 fold
- Fold change Car12 [3]: 6.21 fold
- Fold change Ccdc135 [3]: 2.84 fold
- Fold change Cldn1 [3]: 2.48 fold
- Fold change Cldn2 [3]: 8.46 fold
- Fold change Col8a2 [3]: 3.06 fold
- Fold change Crhr2 [3]: 2.35 fold
- Fold change Enpp2 [3]: 2.22 fold
- Fold change F5 [3]: 6.19 fold
- Fold change Fap [3]: 3.16 fold
- Fold change Folr1 [3]: 11.92 fold and 11.91 fold
- Fold change Gmnc [3]: 2.40 fold
- Fold change Gvin1 [3]: 5.55 fold
- Fold change Hdac5 [3]: −1.13 fold
- Fold change Hdac10 [3]: −1.20 fold
- Fold change Igfbpl1 [3]: 2.39 fold
- Fold change Il1a [3]: 2.21 fold
- Fold change Inmt [3]: 6.34 fold
- Fold change Kcne2 [3]: 17.29 fold
- Fold change Kcnj13 [3]: 7.84 fold
- Fold change Kl [3]: 5.00 fold
- Fold change Krt18 [3]: 6.56 fold
- Fold change Lbp [3]: 3.97 fold
- Fold change Lum [3]: 2.08 fold
- Fold change Mfrp [3]: 4.30 fold
- Fold change Otx2 [3]: 5.17 fold
- Fold change Postn [3]: 2.24 fold
- Fold change Prr32 [3]: 5.41 fold
- Fold change Rbm14-rbm4 [3]: 66.16 fold
- Fold change Slc4a5 [3]: 4.83 fold
- Fold change Sostdc1 [3]: 15.70 fold
- Fold change Tgtp1 [3]: 2.49 fold
- Fold change Tmem72 [3]: 6.47 fold
- Fold change Tmprss11a [3]: 37.90 fold
- Fold change Tnfsf13 [3]: 2.14 fold
- Fold change Ttr [3]: 23.21 fold
- Fold change Wfdc2 [3]: 4.61 fold
- Log2FC Ascl1 [4]: 1.16 Log2FC
- Log2FC Klf2 [4]: −1.57 Log2FC
- Log2FC Klf4 [4]: −1.23 Log2FC
- Log2FC Klf5 [4]: 1.25 Log2FC
- Log2FC Klf6 [4]: 1.03 Log2FC
- Log2FC Klf7 [4]: 1.12 Log2FC
- Log2FC Klf9 [4]: −1.03 Log2FC
- Log2FC Klf13 [4]: −1.16 Log2FC
- Log2FC Klf15 [4]: −1.26 Log2FC
- Log2FC Klf16 [4]: −1.08 Log2FC
- Log2FC L-Myc (Mycl) [4]: 1.08 Log2FC
- Log2FC Lin28b [4]: −1.13 Log2FC
- Log2FC Myt1l [4]: 1.03 Log2FC
- Log2FC N-Myc (Mycn) [4]: 1.63 Log2FC
- Log2FC Nanog [4]: 1.01 Log2FC
- Log2FC NeuroD1 [4]: 1.26 Log2FC
- Log2FC Sirt1 [4]: 1.17 Log2FC
- Log2FC Sox2 [4]: 1.25 Log2FC
- Log2FC Sox11 [4]: 1.05 Log2FC
- Log2FC Stat3 [4]: −1.00 Log2FC
- Log2FC c-Myc (Myc) [4]: 1.14 Log2FC
- Log2FC Ascl1 [5]: 1.05 Log2FC
- Log2FC Klf2 [5]: 1.20 Log2FC
- Log2FC Klf4 [5]: 1.13 Log2FC
- Log2FC Klf5 [5]: −1.30 Log2FC
- Log2FC Klf6 [5]: 1.05 Log2FC
- Log2FC Klf7 [5]: 1.15 Log2FC
- Log2FC Klf9 [5]: −1.05 Log2FC
- Log2FC Klf13 [5]: −1.17 Log2FC
- Log2FC Klf15 [5]: −1.16 Log2FC
- Log2FC Klf16 [5]: −1.24 Log2FC
- Log2FC L-Myc (Mycl) [5]: −1.54 Log2FC
- Log2FC Lin28b [5]: 1.07 Log2FC
- Log2FC Myt1l [5]: −1.17 Log2FC
- Log2FC N-Myc (Mycn) [5]: 1.00 Log2FC
- Log2FC Nanog [5]: −1.03 Log2FC
- Log2FC NeuroD1 [5]: 1.21 Log2FC
- Log2FC Sirt1 [5]: 1.02 Log2FC
- Log2FC Sox2 [5]: 1.07 Log2FC
- Log2FC Sox11 [5]: −1.21 Log2FC
- Log2FC Stat3 [5]: −1.04 Log2FC
- Log2FC c-Myc (Myc) [5]: −1.03 Log2FC
